According to patent publication US20240216410A1, “METHODS AND COMPOSITIONS FOR TREATING CANCER THERAPY-INDUCED NEUTROPENIC FEVER AND/OR GVHD” (BOARD OF REGENTS, THE UNIVERSITY OF TEXAS SYSTEM, priority 2021, published 2024):

Key:
BT (MDA-JAX BT001) = test: Mucin degradation assay of BT in porcine gastric mucin medium with monosaccharides; format: cell-based, Bacteroides thetaiotaomicron; settings: monosaccharide added at 15 hours, further 3 hours
Experimental: (§1) To examine the effects of the presence of monosaccharides on mucin utilization by BT, BT was cultivated in bacterial media containing porcine gastric mucin, a panel of monosaccharides was subsequently added, including arabinose and xylose, and levels of remaining mucin were quantified using a colorimetric assay (FIG. 18C). In the absence of additional monosaccharides, BT readily metabolized porcine gastric mucin.
Bacteria were cultured up to 48 hours at a starting concentration of 1×10^6 bacteria/ml in BYEM10 broth (pH 7.2) with and without 5 mg/ml of porcine gastric mucin (M1778, Sigma-Aldrich). Optical densities (OD600 nm) of bacterial cultures were measured with a BioTek EPOCH™ 2 plate reader.
Mucin degradation assay. Levels of mucin glycans in culture supernatants were determined by a PAS-based colorimetric assay as previously described (67) with minor modifications. Briefly, culture supernatants were centrifuged at 20,000 g, 4° C. for 10 minutes and collected. To perform mucin precipitation, 500 μL of culture supernatants were mixed with 1 mL of molecular grade ethanol and incubated at −30° C. overnight. Culture supernatants were centrifuged at 20,000 g, 4° C. for 10 minutes. Mucin-containing pellets were washed with 1 mL of molecular grade ethanol twice and resuspended in 500 μL of PBS. […] Absorbance was measured at 550 nm using a BioTek SYNERGY™ HTX plate reader.

colonic mucus layer = test: Murine GVHD model: colonic mucus layer thickness (PAS staining); format: in vivo, mice; settings: day 20; xylose days 13 to 20 vs GVHD mice receiving meropenem alone
Experimental: Next, assessed was the impact of meropenem treatment on the dense colonic mucus layer of mice with GVHD.
Allo-HSCT recipient mice were treated with meropenem as in FIG. 15A and with xylose from days 13 to 20 (FIG. 18F). […] Importantly, in vitro, growth of mouse and human-derived BT in carbohydrate-poor media was augmented by xylose (FIG. 23B).
Xylose administration. D-(+)-xylose (X3877, SIGMA-ALDRICH®) was dissolved in phosphate buffer pH 8.0 with meropenem or in water without meropenem and given at a concentration of 0.5% from days 13 to 20 after allo-HSCT.
Histological and immunohistochemistry analysis. […] Pathology scores were quantified by a blinded pathologist. […] Sections were imaged using an APERIO® AT2.

[1] = system: mouse and human-derived BT; test: Growth of BT in carbohydrate-poor media with monosaccharide; format: cell-based, Bacteroides thetaiotaomicron; settings: OD600 nm up to 30 hours
Experimental: Allo-HSCT recipient mice were treated with meropenem as in FIG. 15A and with xylose from days 13 to 20 (FIG. 18F). […] Importantly, in vitro, growth of mouse and human-derived BT in carbohydrate-poor media was augmented by xylose (FIG. 23B). […] Bacteria were cultured up to 48 hours at a starting concentration of 1×10^6 bacteria/ml in BYEM10 broth (pH 7.2) with and without 5 mg/ml of porcine gastric mucin ([…], Sigma-Aldrich). Optical densities (OD600 nm) of bacterial cultures were measured with a BioTek EPOCHTM 2 plate reader.

intestinal microbiota = test: Murine GVHD model: fecal microbiome composition (16S rRNA sequencing) and bacterial density (qPCR); format: in vivo, mice; settings: day 20; meropenem-treated mice with or without oral xylose 0.5% days 13 to 20
Experimental: Effects of meropenem treatment on the composition of the intestinal microbiota of allo-HSCT mice were also examined (FIG. 15F).
Sequencing of 16S rRNA gene amplicons. Fecal samples from patients and mice were weighed before DNA isolation. In brief, genomic DNA was isolated using the QIAAMP® DNA mini kit (51306, QIAGEN®) according to the manufacturer's protocol that was modified to include an intensive bead-beating lysis step. The V4 region of 16S rRNA gene was amplified by PCR from 100 ng of each of extracted and purified genomic DNA using 515 forward and 806 reverse primer pairs (59). The quality and quantity of the barcoded amplicons were assessed on an Agilent 4200 TapeStation system (Agilent) and QUBIT™ Fluorometer (THERMO FISHER […]™), and libraries were prepared after pooling at equimolar ratios. The final libraries were purified using […]® gel extraction kit (28706X4, QIAGEN®) and sequenced with a 2×250 base pair paired-end protocol on the […]® MISEQ™ platform.
Microbiome data analysis. Sequencing data from paired-end reads were de-multiplexed using QIIME 2 (60). Merging of paired-end reads, dereplicating, and length filtering was performed using VSEARCH 2.17.1 (61). Following de-noising and chimera calling using the unoise3 command (62), unique sequences were taxonomically classified with mothur (63) using the Silva database (64) version 138. Weighted UniFrac distances (65) were determined using QIIME 2, visualized using principal coordinate analysis, and evaluated for statistical significance using permutational multivariate analysis of variance (PERMANOVA) testing. For differential abundance analysis, abundances of sequences belonging to taxonomical groups were included for analysis using the Mann-Whitney U test and adjusted for multiple comparisons using the method of Benjamini and Hochberg. Paired samples were analyzed using the Wilcoxon signed rank test with adjustment for multiple comparisons.
Quantification of fecal bacterial density. Genomic DNA was isolated from stool as described above. qPCR was performed as previously described (66). In brief, 16S rRNA gene sequences were amplified from total fecal DNA using the primers 926F (5′-[…]-3′, where K is a G or a T; SEQ ID NO:2) and 1062R (5′-[…]-3′, where R is an A or a G; SEQ ID NO:3). Real-time PCR were carried out in 96-well optical plates on QUANTSTUDIO™ Flex 6 RT PCR (APPLIED BIOSYSTEMS™) and KAPA SYBR® FAST Master Mix (Roche). The PCR conditions included one initial denaturing step of 10 min at 95° C. and 40 cycles of 95° C. for 20 sec and 60 °C for 1 min. Melting-curve analysis was performed after amplification. To determined bacterial density, a plasmid with a 16S rRNA gene of a murine Blautia isolate was generated in the pCR4 backbone and used as a standard.

[2] = system: murine BT GH2 β-galactosidase, GH33 sialidase, GH29 α-L-fucosidase; test: Quantitative real-time PCR of GH2, GH29 and GH33 BT loci; format: cell-based, Bacteroides thetaiotaomicron; settings: BT cultured with or without monosaccharides
From the text: as §1
Quantitative real-time PCR analysis of BT loci. Total RNA was isolated from in vitro cultured BT as described above. The cDNA was synthesized using a High-Capacity cDNA Reverse Transcription Kit (4368814, APPLIED BIOSYSTEMS™). The mRNA levels of selected targets were quantified by qPCR using KAPA SYBR® FAST Master Mix (Roche) and specific probes (GH2, 5′-[…]-3′ (SEQ ID NO:4) for the forward primer, 5′-[…]-3′ (SEQ ID NO:5) for the reverse primer; GH29, 5′-[…]-3′ (SEQ ID NO:6) for the forward primer, 5′-[…]-3′ (SEQ ID NO:7) for the reverse primer; GH33, 5′-[…]-3′ (SEQ ID NO:8) for the forward primer, 5′-[…]-3′ (SEQ ID NO:9) for the reverse primer) and were normalized to BT specific probes (5′-[…]-3′ (SEQ ID NO:10) for the forward primer, 5′-[…]-3′ (SEQ ID NO:11) for the reverse primer) (75).

O=C[C@H](O)[C@@H](O)[C@H](O)CO [xylose, D-(+)-xylose]
mucin utilization by BT (BT (MDA-JAX BT001)): significantly suppressed | colonic mucus thickness (colonic mucus layer): prevented thinning of the colonic mucus thickness | growth of BT in carbohydrate-poor media [1]: augmented | relative abundances of BT (intestinal microbiota): not significantly different | expression of GH2 β-galactosidase by murine BT [2]: not significantly impacted | expression of GH33 sialidase and GH29 α-L-fucosidase by murine BT [2]: suppressed
